One assay relates to human T-cells. Nature of the assay: Suppression of Human T-Cell Proliferation Assay (PHA-stimulated, [3H]-thymidine incorporation). The assay is classed as cell-based. Particulars: concentration inhibiting [3H]-thymidine incorporation of PHA-stimulated T-cells by 50%, 72 hours; TABLE 2; read-out: IC50. The method, boiled down: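 Read-out is scintillation counting of [3H]-thymidine pulsed for the last 6 h of a 72 h, 37° C culture. Human T-cells, isolated from LeukoPaks by Lymphoprep and sheep-erythrocyte rosetting, were PHA-M activated (40 μg/ml stock) with compound dilutions added in duplicate wells.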

In another assay the test system is NF-AT. Description: NF-AT Inhibition Assay Directed β-Galactosidase Expression in FGL-5 cells. The assay is classed as cell-based. Particulars: 50% inhibition of NF-AT directed β-galactosidase activity in FGL-5 cells stimulated with phorbol dibutyrate and ionomycin; TABLE 3. As for the experimental part:
3) NF-AT Assay Stimulation of T-cells leads to the appearance of several transcription factors, including one designated "NF-AT". These factors are involved in regulation of gene expression required for immunologic activation. Some of these transcription factors appear to have functions in a wide variety of cell types. By contrast, NF-AT is found primarily in T-cells and its role is restricted to early gene activation. […] Inhibition of NF-AT activity is measured using FGL-5 cells. FGL-5 is a cloned line of stably transfected Jurkat T-cells that contain two construct in which three tandem copies of the NF-AT DNA binding site direct transcription of both murine CD8 and the lacZ gene, encoding β-galactosidase ([…] et al., 1990, Genes & Development 4:1823). When these cells are stimulated with phorbol esters which activate protein kinase C and calcium ionophore to raise the intracellular calcium concentration, transcriptionally active NF-AT is produced. In T-cells, this normally leads to the expression of IL-2, T-cell growth factor. However, in FGL-5 cells NF-AT activation leads to the production of β-galactosidase which can be detected using an appropriate substrate. […] NF-AT Inhibition Assay Directed β-Galactosidase Expression This assay was performed essentially as described (Bierer et al., 1990, Proc. Natl. Acad. Sci. 87:9231). […] The assays were done with exponentially growing cells whose density was not greater than 0.5 million cells/ml. The cells were resuspended to 3 million cells/ml in medium and 0.1 ml was added to wells of a 96-well plate. The compounds of the present invention were dissolved in either ethanol or dimethylsulfoxide at 10 mM and […] of various dilutions in medium were added to cells in duplicate wells. Treatment controls consisted of duplicate wells containing 0.5 ml/well of either medium, ethanol or dimethylsulfoxide. The ethanol and dimethyl sulfoxide were at the same concentration as was used for the compounds. […] Phorbol dibutyrate (Sigma) and Ionomycin (Calbiochem) were dissolved at 50 μg/ml and 2 mM, respectively and stored at -70° C. […] For unstimulated cell controls, 0.5 ml/well of medium was added to duplicate wells. The plates were incubated overnight (16-18 hours) at 37° C. in a humidified atmosphere of 5% CO2 and air. β-galactosidase activity was measured as the fluorescence generated by the cleavage of 4-methyl umbelliferyl-β-D-galactoside (Sigma) at the β-galactoside bond. After overnight incubation, the cells were centrifuged at 500×g for 3 minutes in the 96-well plates and washed 3 times with PBS. […] The percent inhibition by each concentration of the compounds was calculated as: […]

The target of the next assay is FKBP (Homo sapiens, UniProt P62942). Nature of the assay: PPIase Inhibition Assay. The assay is classed as biochemical. The note with it: concentration of inhibitor required for 50% inhibition of enzyme activity; FKBP, substrate Succinyl-Ala-Phe-Pro-Phe-para-nitroanilide; TABLE I. A digest of the protocol:
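Rates from p-nitroaniline release at 390 nm over 90 sec, fitted first-order, were converted to % activity remaining relative to uncatalyzed and uninhibited rates, with IC50 from linear regression of V-/V+ against inhibitor level. FKBP acted on Suc-Ala-Phe-Pro-Phe-pNA with excess chymotrypsin, HEPES pH 7.8, cold buffer.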

Structures can show the parent of a compound that is named as a salt. Some results are limits rather than exact numbers.

Sequence of FKBP (P62942 whole entry): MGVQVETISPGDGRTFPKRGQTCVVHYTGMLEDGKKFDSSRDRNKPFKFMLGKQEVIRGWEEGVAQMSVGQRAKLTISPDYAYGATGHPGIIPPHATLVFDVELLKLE

One may read the IC50 as the point on the concentration scale where inhibition reaches its midpoint. In the case of `CC[C@H](C)[C@H](NC(=O)[C@@H]1CCCN1CC(=O)OCC1(c2ccccc2)CCCCC1)C(=O)NCc1ccccc1` [Example 87, L-Isoleucine, N-[1-(2-(1-Phenyl-1-Cyclohexylmethoxy)-2-Oxoethyl)-L-Prolyl] Benzylamide], the IC50 in the assay with human T-cells was 8 µM; in the assay with NF-AT, 6 µM; at FKBP, over 5 µM.

On to `CC[C@H](C)[C@H](NC(=O)[C@@H]1CCCN1CC(=O)OC(CN1CCOCC1)c1ccccc1)C(=O)NCc1ccccc1` (stereo partly drawn) [Example 88, L-Isoleucine, N-[1-(2-(1-Phenyl-2-(4-Morpholino)Ethoxy)-2-Oxoethyl)-L-Prolyl] Benzylamide], for which the results for the half-inhibitory concentration (IC50) with human T-cells, with NF-AT and on FKBP were 16 µM, 13 µM and under 5 µM, respectively.

For `CC[C@H](C)[C@H](NC(=O)[C@@H]1CCCN1CC(=O)OC1(C)C2CC3CC(C2)CC1C3)C(=O)NCc1ccccc1` (stereo partly drawn) [Example 89, L-Isoleucine, N-[1-(2-(2-Oxy-2-Methyladamant-2-yl)-2-Oxoethyl)-L-Prolyl] Benzylamide], the IC50 with human T-cells came to 8 µM; with NF-AT it was 5 µM; against FKBP, 0.12 µM.

On to `CC[C@H](C)[C@H](NC(=O)[C@@H]1CCCN1CC(=O)NCC12CC3CC(CC(C3)C1)C2)C(=O)NCc1ccccc1` [Example 91, L-Isoleucine, N-[1-(Adamant-1-ylmethylcarbamoylmethyl)-L-Prolyl] Benzylamide], for which the IC50 was 4 µM in the assay with human T-cells, 26 µM in the assay on NF-AT and under 5 µM against FKBP.

For the molecule `CC[C@H](C)[C@H](NC(=O)[C@@H]1CCCN1CC(=O)C1CCC(C(C)(C)C)CC1)C(=O)NCc1ccccc1` (stereo partly drawn) [Example 96, L-Isoleucine, N-[1-(2-(4-tert-Butylcyclohexyl)-2-Oxoethyl)-L-Prolyl] Benzylamide], the figures for the IC50 in the assay with human T-cells, in the assay with NF-AT and against FKBP were 8 µM, 24 µM and under 5 µM, respectively.

On to `CC[C@H](C)[C@H](NC(=O)[C@@H]1CCCN1CC(=O)C1CC2CCC1C2)C(=O)NCc1ccccc1` (stereo partly drawn) [Example 97], for which the IC50 with human T-cells is 12 µM; in the assay on NF-AT, 32 µM; against FKBP, under 5 µM.

`CC[C@H](C)[C@H](NC(=O)[C@@H]1CCCN1CC(=O)c1cc(OC)c(OC)c(OC)c1)C(=O)NCc1ccccc1` [Example 98, L-Isoleucine, N-[1-(2-(3,4,5-Trimethoxyphenyl)-2-Oxoethyl)-L-Prolyl] Benzylamide]: the IC50 with human T-cells is 7 µM; with NF-AT, over 33 µM; on FKBP, under 5 µM.

Regarding `CC[C@H](C)[C@H](NC(=O)[C@@H]1CCCN1CC(=O)C1CCc2ccccc2O1)C(=O)NCc1ccccc1` (stereo partly drawn) [Example 99, L-Isoleucine, N-[1-(2-(Chroman-2-yl)-2-Oxoethyl)-L-Prolyl] Benzylamide Hydrochloride Salt], the IC50 with human T-cells is over 15 µM; in the assay on NF-AT, over 15 µM; against FKBP, 5 µM.

As for `CC[C@H](C)[C@H](NC(=O)[C@@H]1CCCN1CC(=O)c1cc2ccccc2o1)C(=O)NCc1ccccc1` [Example 100, L-Isoleucine, N-[1-(2-(Benzofuran-2-yl)-2-Oxoethyl)-L-Prolyl] Benzylamide Hydrochloride Salt], the results for the IC50 in the assay on human T-cells, in the assay with NF-AT and on FKBP were over 15 µM, over 15 µM and over 5 µM, respectively.

On to `CC[C@H](C)[C@H](NC(=O)[C@@H]1CCCN1CC(=O)c1cccc(OC(=O)c2ccccc2)c1)C(=O)NCc1ccccc1` [Example 101, L-Isoleucine, N-[1-(2-(3-Benzoyloxyphenyl)-2-Oxoethyl)-L-Prolyl] Benzylamide], for which the IC50 was over 15 µM in the assay with human T-cells, over 15 µM in the assay on NF-AT and under 5 µM against FKBP.

With `CC[C@H](C)[C@H](NC(=O)[C@@H]1CCCN1CC(=O)c1ccc(OC(=O)c2ccccc2)cc1)C(=O)NCc1ccccc1` [Example 102, L-Isoleucine, N-[1-(2-(4-Benzoyloxyphenyl)-2-Oxoethyl)-L-Prolyl] Benzylamide], the results for the IC50 in the assay with human T-cells, with NF-AT and at FKBP were over 15 µM, over 15 µM and 5 µM, respectively.

The values above are taken from patent publication US5686424A, “2-oxoethyl derivatives as immunosuppressants” (Miles Inc., priority 1995, dated 1997).
